Assays:
Type in all cases: cell-based
[1] = test system: RL95-2; experiment: ATPlite cell IC50 screening, RL95-2; details: Homo sapiens; RL95-2, Endometrial adenosquamous carcinoma; ATPlite luminescence
Protocol: (§1) In brief, the cells were cultures in relevant medium and treated with a range of 9 doses of 2-deoxyribitol, from 10 mM, 5 mM, 2.5 mM, 1.25 mM, 0.62 mM, 0.31 mM, 0.08 mM, and 0.04 mM. Cells were diluted in the corresponding ATCC recommended medium and dispensed in a 384-well plate, depending on the cell line used, at a density of 100-6400 cells per well in 45 μl medium. For each used cell line the optimal cell density was used. The margins of the plate were filled with phosphate-buffered saline. Plated cells were incubated in a humidified atmosphere of 5% CO2 at 37° C. After 24 hours, 5 μl of compound dilution was added and plates were further incubated. At the end of experiment (t=end), 24 μl of ATPlite 1Step™ (PerkinElmer) solution was added to each well, and subsequently shaken for 2 minutes. After 10 minutes of incubation in the dark, the luminescence was recorded on an Envision multimode reader (PerkinElmer). IC50 was determined in comparison with the control samples. The cell lines tested and their corresponding disease model is indicated the left-most and middle columns, respectively. IC50 values are given in μM values in the right-most column. This screening was performed of a list of cancer cells to establish IC50 values for each of the cancer cell lines. This screening provides evidence for the potential of 2DR to treat many cancer types.

[2] = test system: C-33 A; experiment: ATPlite cell IC50 screening, C-33 A; details: Homo sapiens, Cervical squamous cell carcinoma, ATPlite luminescence
Protocol: as §1

[3] = test system: SUP-T1; experiment: ATPlite cell IC50 screening, SUP-T1; details: Homo sapiens; SUP-T1, Childhood T lymphoblastic lymphoma; ATPlite luminescence
Protocol: as §1

[4] = test system: CCRF-CEM; experiment: ATPlite cell IC50 screening, CCRF-CEM; details: Homo sapiens, Childhood T acute lymphoblastic leukemia, ATPlite luminescence
Protocol: as §1

[5] = test system: BT-549; experiment: ATPlite cell IC50 screening, BT-549; details: Homo sapiens; BT-549, Invasive ductal carcinoma; ATPlite luminescence
Protocol: as §1

[6] = test system: SU-DHL-1; experiment: ATPlite cell IC50 screening, SU-DHL-1; details: Homo sapiens; SU-DHL-1, Anaplastic large cell lymphoma; ATPlite luminescence
Protocol: as §1

[7] = test system: SW837; experiment: ATPlite cell IC50 screening, SW837; details: Homo sapiens; SW837, Rectal adenocarcinoma; ATPlite luminescence
Protocol: as §1

[8] = test system: PA-1; experiment: ATPlite cell IC50 screening, PA-1; details: Homo sapiens; PA-1, Ovarian mixed germ cell tumor; ATPlite luminescence
Protocol: as §1

[9] = test system: COLO 829; experiment: ATPlite cell IC50 screening, COLO 829; details: Homo sapiens; COLO 829, Cutaneous melanoma; ATPlite luminescence
Protocol: as §1

[10] = test system: ES-2; experiment: ATPlite cell IC50 screening, ES-2; details: Homo sapiens; ES-2, Ovarian clear cell adenocarcinoma; ATPlite luminescence
Protocol: as §1

[11] = test system: 786-O; experiment: ATPlite cell IC50 screening, 786-O; details: Homo sapiens, 786-0, Renal cell carcinoma, ATPlite luminescence
Protocol: as §1

[12] = test system: MDA231 cells (triple negative breast cancer cell); experiment: MDA231 cell growth
Protocol: However, this effect was not related to the enhanced expression of glycosylation of α-DG.
Less than 50% of cells and 10% of cells were detected with the treatment of 10 mM and 50 mM 2-deoxyribitol, respectively.

[13] = test system: SJCRH30; experiment: ATPlite cell IC50 screening, SJCRH30; details: SJCRH30, Alveolar rhabdomyosarcoma; ATPlite luminescence
Protocol: as §1

[14] = test system: SU-DHL-6; experiment: ATPlite cell IC50 screening, SU-DHL-6; details: Homo sapiens; SU-DHL-6, Diffuse large B-cell lymphoma; ATPlite luminescence
Protocol: as §1

[15] = test system: Daoy; experiment: ATPlite cell IC50 screening, Daoy; details: Homo sapiens, Medulloblastoma, ATPlite luminescence
Protocol: as §1

[16] = test system: SR; experiment: ATPlite cell IC50 screening, SR; details: Homo sapiens, Anaplastic large cell lymphoma, ATPlite luminescence
Protocol: as §1

[17] = test system: HL-60; experiment: ATPlite cell IC50 screening, HL-60; details: Homo sapiens; HL-60, Adult acute myeloid leukemia; ATPlite luminescence
Protocol: as §1

[18] = test system: A-549; experiment: ATPlite cell IC50 screening, A-549; details: Homo sapiens, A549; A-549, Lung adenocarcinoma; ATPlite luminescence
Protocol: as §1

[19] = test system: KU812; experiment: ATPlite cell IC50 screening, KU812; details: Homo sapiens; KU812, Chronic myelogenous leukemia; ATPlite luminescence
Protocol: as §1

[20] = test system: LS411N; experiment: ATPlite cell IC50 screening, LS411N; details: Homo sapiens, LS-411N, Cecum adenocarcinoma, ATPlite luminescence
Protocol: as §1

[21] = test system: SW948; experiment: ATPlite cell IC50 screening, SW948; details: Homo sapiens; SW948, Colon adenocarcinoma; ATPlite luminescence
Protocol: as §1

[22] = test system: HuTu 80; experiment: ATPlite cell IC50 screening, HuTu 80; details: Homo sapiens, HuTu80; HuTu 80, Duodenal adenocarcinoma; ATPlite luminescence
Protocol: as §1

[23] = test system: RT4; experiment: ATPlite cell IC50 screening, RT4; details: Homo sapiens, RT-4; RT4, Bladder carcinoma; ATPlite luminescence
Protocol: as §1

[24] = test system: HT; experiment: ATPlite cell IC50 screening, HT; details: Homo sapiens, Diffuse large B-cell lymphoma, ATPlite luminescence
Protocol: as §1

[25] = test system: LS 174T; experiment: ATPlite cell IC50 screening, LS 174T; details: Homo sapiens, LS174T, Colon adenocarcinoma, ATPlite luminescence
Protocol: as §1

[26] = test system: MG-63; experiment: ATPlite cell IC50 screening, MG-63; details: Homo sapiens; MG-63, Osteosarcoma; ATPlite luminescence
Protocol: as §1

[27] = test system: T24; experiment: ATPlite cell IC50 screening, T24; details: Homo sapiens, T-24; T24, Bladder carcinoma; ATPlite luminescence
Protocol: as §1

[28] = test system: HT-1080; experiment: ATPlite cell IC50 screening, HT-1080; details: Homo sapiens; HT-1080, Fibrosarcoma; ATPlite luminescence
Protocol: as §1

## OCC[C@H](O)[C@H](O)CO [2-deoxyribitol]
[1]
  IC50: 6.42 mM
[2]
  IC50: 7.6 mM
[3]
  IC50: 3.06 mM
[4]
  IC50: 5.97 mM
[5]
  IC50: 4.27 mM
[6]
  IC50: 2.65 mM
[7]
  IC50: 9.79 mM
[8]
  IC50: 3.49 mM
[9]
  IC50: 6.37 mM
[10]
  IC50: 8.74 mM
[11]
  IC50: 8.57 mM
[12]; MDA231, concentrations lower than 10 mM
  inhibitory effect as seen in MCF7 (growth / anchorage independent growth): clearly demonstrated
[12]; MDA231 cells
  inhibiting cell growth: had an effect on inhibiting cell growth
[13]
  IC50: 4.46 mM
[14]
  IC50: 4.06 mM
[15]
  IC50: 6.24 mM
[16]
  IC50: 4.25 mM
[17]
  IC50: 7.46 mM
[18]
  IC50: 9.97 mM
[19]
  IC50: 4.3 mM
[20]
  IC50: 6.97 mM
[21]
  IC50: 2.53 mM
[22]
  IC50: 4.92 mM
[23]
  IC50: > 10 mM
[24]
  IC50: 6.89 mM
[25]
  IC50: 2.52 mM
[26]
  IC50: 9.27 mM
[27]
  IC50: > 10 mM
[28]
  IC50: 4.39 mM
